According to US20240270715A1, “INHIBITORS OF TRANSGLUTAMINASES” (ZEDIRA GMBH, priority 2021, published 2024):
Like-named read-outs stand apart in the source and are kept apart here.

Legend:
[1] = Log D by shake flask method (octanol / PBS pH 7.4, HPLC); assay type: physicochemical; conditions: octanol / PBS pH 7.4, shake flask
Outline: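 Shake-flask partitioning of compound between octanol and PBS at pH 7.4, with phase concentrations quantified by HPLC. The value reported is Log D.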

Caco-2 barrier = test: Caco-2 permeability assay (CacoReady kit); assay type: in vitro ADME
Outline: (§1)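 Read-out is the permeability coefficient Papp, obtained from transport across a Caco-2 barrier prepared from a ready-to-use kit following the manufacturer's instructions.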

[2] = biological target: T1, recombinant human transglutaminase 2 (Homo sapiens, UniProt P21980); test: Transglutaminase assay: incorporation of dansylcadaverine into dimethylcasein (DCC-assay); assay type: biochemical; conditions: recombinant human TG2 10 nM, dansylcadaverine/dimethylcasein; read-out: IC50 TG2
T1 sequence (P21980 1-687): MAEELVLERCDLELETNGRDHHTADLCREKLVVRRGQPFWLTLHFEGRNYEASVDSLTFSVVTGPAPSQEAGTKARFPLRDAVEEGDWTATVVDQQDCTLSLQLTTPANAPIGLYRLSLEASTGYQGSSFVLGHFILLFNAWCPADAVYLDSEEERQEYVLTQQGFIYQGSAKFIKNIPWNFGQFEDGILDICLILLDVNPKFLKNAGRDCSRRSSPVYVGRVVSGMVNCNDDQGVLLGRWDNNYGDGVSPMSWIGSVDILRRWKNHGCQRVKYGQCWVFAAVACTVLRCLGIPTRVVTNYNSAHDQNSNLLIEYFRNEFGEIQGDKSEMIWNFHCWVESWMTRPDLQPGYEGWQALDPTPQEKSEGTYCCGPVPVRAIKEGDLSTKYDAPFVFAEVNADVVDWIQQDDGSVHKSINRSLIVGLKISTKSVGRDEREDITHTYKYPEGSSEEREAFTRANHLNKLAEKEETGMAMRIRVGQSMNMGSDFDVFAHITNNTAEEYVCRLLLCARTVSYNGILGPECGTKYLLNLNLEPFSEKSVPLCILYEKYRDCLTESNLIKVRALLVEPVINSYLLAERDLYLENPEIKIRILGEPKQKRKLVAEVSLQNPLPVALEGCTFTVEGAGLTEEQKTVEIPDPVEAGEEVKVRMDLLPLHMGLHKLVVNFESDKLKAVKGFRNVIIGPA
Outline: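 Recombinant human TG2 (10 nM final) incorporates dansylcadaverine (16.7 μM) into N,N-dimethylcasein (4 μM) in Tris-HCl buffer, pH 8.0, with 10 mM CaCl2 and 10 mM glutathione. Fluorescence (λex 330, λem 500 nm) followed 30 min. The slope between 20–30 min gives activity versus DMSO control, and IC50 comes from the concentration–activity plot.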

[3] = Caco-2 permeability assay (CacoReady kit); assay type: in vitro ADME; conditions: human
Outline: as §1

| Compound | logD [1] | Papp (Caco-2 barrier) | logD ([1]; read-out: logD) | IC50 [2] | Papp [3] |
| --- | --- | --- | --- | --- | --- |
| CCNC(=O)C(=O)CC[C@H](NC(=O)c1ccn(C)n1)C(=O)Nc1cccn(CC(=O)N[C@]23C[C@H]4C5CC6CC4[C@H](C2)C(C6)[C@H]5C3)c1=O (single isomer, unassigned) [Compound I-80] | B (B: 1 ≤ logD < 3) | A (A: Papp < 1 × 10^−6 cm/s) | – | – | – |
| CCNC(=O)C(=O)CC[C@H](NC(=O)c1nn[nH]n1)C(=O)Nc1cccn(CC(=O)NC2C3CC4CC(C3)CC2C4)c1=O (stereo partly drawn) [Compound I-57, (S)-N1-ethyl-N6-(1-(2-(2-adamantylamino)-2-oxoethyl)-2-oxo-1,2-dihydropyridin-3-yl)-2-oxo-5-(2H-tetrazole-5-carboxamido)hexanediamide] | – | – | < 1 | 600 to 3500 nM | < 1 ×10⁻⁶ cm/s |
| CCNC(=O)C(=O)CC[C@H](NC(=O)c1cn(CC(C)C)cn1)C(=O)Nc1cccn(CC(=O)NC23CC4CC(CC(CC)(C4)C2)C3)c1=O [Compound I-18, (S)-N1-ethyl-5-(1-isobutyl-1H-imidazole-4-carboxamido)-N6-(1-(2-(3-ethyladamantane-1-amino)-2-oxoethyl)-2-oxo-1,2-dihydropyridin-3-yl)-2-oxohexanediamide] | – | – | 3 to 5 | 600 to 3500 nM | < 1 ×10⁻⁶ cm/s |
| CCNC(=O)C(=O)CC[C@H](NC(=O)c1cc(Cl)sc1Cl)C(=O)Nc1cccn(CC(=O)NC2C3CC4CC(C3)CC2C4)c1=O (stereo partly drawn) [Compound I-46, (S)-2-(2,5-dichlorothiophene-3-carboxamido)-N6-ethyl-N1-(1-(2-(2-adamantylamino)-2-oxoethyl)-2-oxo-1,2-dihydropyridin-3-yl)-5-oxohexanediamide] | – | – | 3 to 5 | < 150 nM | 1 to 10 ×10⁻⁶ cm/s |
| CCNC(=O)C(=O)CC[C@H](NC(=O)c1cccnn1)C(=O)Nc1cccn(CC(=O)N[C@@H]2C[C@@H]3C=C[C@H]2C3)c1=O [Compound I-73, (S)-N1-(1-(2-((1R,2R,4R)-bicyclo[2.2.1]hept-5-en-2-ylamino)-2-oxoethyl)-2-oxo-1,2-dihydropyridin-3-yl)-N6-ethyl-5-oxo-2-(pyridazine-3-carboxamido)hexanediamide] | – | – | < 1 | 150 to 600 nM | < 1 ×10⁻⁶ cm/s |
| CCNC(=O)C(=O)CC[C@H](NC(=O)C1Cc2ccccc2C1)C(=O)Nc1cccn(CC(=O)NC2C3CC4CC(C3)CC2C4)c1=O (stereo partly drawn) [Compound I-39, (S)-2-(2,3-dihydro-1H-indene-2-carboxamido)-N6-ethyl-N1-(1-(2-(2-adamantylamino)-2-oxoethyl)-2-oxo-1,2-dihydropyridin-3-yl)-5-oxohexanediamide] | – | – | 3 to 5 | < 150 nM | 1 to 10 ×10⁻⁶ cm/s |

Other lines, results leading:

| logD [1] | Papp (Caco-2 barrier) | logD ([1]; read-out: logD) | IC50 [2] | Papp [3] | Compound |
| --- | --- | --- | --- | --- | --- |
| – | – | < 1 | 600 to 3500 nM | < 1 ×10⁻⁶ cm/s | CCNC(=O)C(=O)CC[C@H](NC(=O)c1c[nH]c(C(N)=O)c1)C(=O)Nc1cccn(CC(=O)NC23CC(C2)C3)c1=O [Compound I-111, (S)-N4-(1-(1-(2-(bicyclo[1.1.1]pentan-1-ylamino)-2-oxoethyl)-2-oxo-1,2-dihydropyridin-3-ylamino)-6-(ethylamino)-1,5,6-trioxohexan-2-yl)-1H-pyrrole-2,4-dicarboxamide] |
| – | – | < 1 | 150 to 600 nM | 1 to 10 ×10⁻⁶ cm/s | CCNC(=O)C(=O)CC[C@H](NC(=O)c1c(C)noc1C)C(=O)Nc1cccn(CC(=O)NC2C3CCCC2CC3)c1=O (stereo partly drawn) [Compound I-91, (2S)-N1-(1-(2-(bicyclo[3.2.1]octan-8-ylamino)-2-oxoethyl)-2-oxo-1,2-dihydropyridin-3-yl)-2-(3,5-dimethylisoxazole-4-carboxamido)-N6-ethyl-5-oxohexanediamide] |
| – | – | 3 to 5 | 600 to 3500 nM | < 1 ×10⁻⁶ cm/s | CCNC(=O)C(=O)CC[C@H](NC(=O)c1cnc2ccc(OC(F)(F)F)cc2c1O)C(=O)Nc1cccn(CC(=O)N[C@@H]2C[C@@H]3CC[C@H]2C3)c1=O [Compound I-99, (S)-N1-(1-(2-((1S,2R,4R)-bicyclo[2.2.1]heptan-2-ylamino)-2-oxoethyl)-2-oxo-1,2-dihydropyridin-3-yl)-N6-ethyl-2-(4-hydroxy-6-(trifluoromethoxy)quinoline-3-carboxamido)-5-oxohexanediamide] |
